According to US9434711B2 (Janssen Pharmaceutica, NV, priority 2007, dated 2016):

Biological target: canine TRPM8 (Canis lupus familiaris, UniProt Q1A7N1)
Assay: In Vitro Canine TRPM8 Functional Assay (Ca2+ fluorescence, icilin activation)
Assay type: cell-based
Details: for IC50: HEK293 cells stably expressing canine TRPM8, icilin activation, eight-point dose-response, read-out: IC50; for inhibition at 0.2 µM: read-out: % Inh @ 0.2; for inhibition at 0.5 µM: compound at 0.5 μM, read-out: % Inh @ 0.5
Procedure, shortened: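 Eight-point dose-response curves, each point averaging quadruplicate wells, gave EC50 or IC50. Canine TRPM8-expressing HEK293 cells, dye-loaded (Calcium 3), were pre-exposed 5 min to compound, then challenged with icilin at roughly EC80; intracellular Ca2+ read by FLIPR or FDSS fluorescence.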

[1] = compound at 0.2 μM, canine TRPM8, icilin activation
[2] = canine TRPM8, icilin activation

canine TRPM8, sequence (Q1A7N1 1-1104): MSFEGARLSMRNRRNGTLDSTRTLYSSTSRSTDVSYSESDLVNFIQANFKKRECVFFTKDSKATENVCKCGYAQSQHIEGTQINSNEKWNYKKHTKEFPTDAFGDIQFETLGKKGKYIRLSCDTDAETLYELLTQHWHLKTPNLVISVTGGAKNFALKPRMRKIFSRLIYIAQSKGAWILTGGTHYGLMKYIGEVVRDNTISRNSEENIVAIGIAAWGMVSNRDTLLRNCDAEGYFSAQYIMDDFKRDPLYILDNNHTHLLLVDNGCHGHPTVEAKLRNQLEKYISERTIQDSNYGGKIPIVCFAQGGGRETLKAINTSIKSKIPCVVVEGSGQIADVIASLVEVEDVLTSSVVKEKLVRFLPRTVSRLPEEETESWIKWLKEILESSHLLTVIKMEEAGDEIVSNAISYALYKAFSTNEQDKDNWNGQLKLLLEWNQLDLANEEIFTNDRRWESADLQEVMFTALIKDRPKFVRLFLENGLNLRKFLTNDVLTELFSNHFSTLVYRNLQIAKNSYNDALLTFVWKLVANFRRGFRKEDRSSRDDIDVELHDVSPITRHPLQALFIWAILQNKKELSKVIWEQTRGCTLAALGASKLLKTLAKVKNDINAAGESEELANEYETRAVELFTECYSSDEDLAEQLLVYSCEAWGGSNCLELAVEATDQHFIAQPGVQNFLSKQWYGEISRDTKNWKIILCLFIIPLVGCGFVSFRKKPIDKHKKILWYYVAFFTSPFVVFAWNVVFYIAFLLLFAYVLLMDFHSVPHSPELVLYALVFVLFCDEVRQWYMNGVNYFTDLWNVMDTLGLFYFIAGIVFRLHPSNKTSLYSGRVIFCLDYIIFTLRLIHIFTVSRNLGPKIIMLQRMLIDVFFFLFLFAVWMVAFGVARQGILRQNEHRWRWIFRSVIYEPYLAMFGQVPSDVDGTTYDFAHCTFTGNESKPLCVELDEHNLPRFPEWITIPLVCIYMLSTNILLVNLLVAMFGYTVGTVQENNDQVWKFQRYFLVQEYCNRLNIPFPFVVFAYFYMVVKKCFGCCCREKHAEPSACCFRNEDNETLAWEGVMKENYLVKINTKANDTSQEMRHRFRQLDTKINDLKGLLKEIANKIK

Row | SMILES | IC50 | inhibition at 0.2 µM [1] | inhibition at 0.5 µM [2] | % Inh @ 0.2 (μM) [1]
1 | O=C(O)c1ccc(S(=O)(=O)N(CCN2CCOCC2)c2sc3ccccc3c2Br)cc1 [Compound 277, N-(3-Bromo-benzo[b]thiophen-2-yl)-N-(2-morpholin-4-yl-ethyl)-4-carboxy-benzenesulfonamide] | 39 nM | 91% | – | –
2 | O=C(O)c1ccc(S(=O)(=O)N(CC23CC4CC(CC(C4)C2)C3)c2sc3ccccc3c2Br)cc1 [Compound 278, N-(3-Bromo-benzo[b]thiophen-2-yl)-N-(adamant-1-yl-methyl)-4-carboxy-benzenesulfonamide] | 1 nM | 98% | – | –
3 | O=C(O)c1ccc(S(=O)(=O)N(CC2CCCCC2)c2sc3ccccc3c2Br)cc1 [Compound 279, N-(3-Bromo-benzo[b]thiophen-2-yl)-N-(cyclohexylmethyl)-4-carboxy-benzenesulfonamide] | 1.3 nM | 97% | – | –
4 | CCS(=O)(=O)N(CCOC(C)(C)C)c1sc2ccccc2c1C(C)O (stereo not shown) [Compound 283, N-(2-tert-Butoxyethyl)-N-(3-(1-hydroxyethyl)benzo[b]thiophen-2-yl)-ethanesulfonamide] | 92 nM | 82% | – | –
5 | Cc1c(N(Cc2ccc(F)c(F)c2)S(=O)(=O)c2ccc(O)cc2)sc2ccccc12 [Compound 285, N-(3,4-Difluoro-benzyl)-N-(3-methyl-benzo[b]thiophen-2-yl)-4-hydroxy-benzenesulfonamide] | 2.5 nM | – | 100% | –
6 | Cc1c(N(Cc2ccc(F)c(F)c2)S(=O)(=O)c2cccc(O)c2)sc2ccccc12 [Compound 286, N-(3,4-Difluoro-benzyl)-N-(3-methyl-benzo[b]thiophen-2-yl)-3-hydroxy-benzenesulfonamide] | 7 nM | – | 99% | –
7 | O=S(=O)(c1ccccc1)N(Cc1cccc(O)c1)c1cc2ccccc2s1 [Compound 287, N-(Benzo[b]thiophen-2-yl)-N-(3-hydroxy-benzyl)-benzenesulfonamide] | 29.8 nM | – | 96% | –
8 | O=S(=O)(c1cccc(O)c1)N(Cc1ccc(F)c(C(F)(F)F)c1)c1sc2ccccc2c1Cl [Compound 288, N-(3-Chloro-benzo[b]thiophen-2-yl)-N-(4-fluoro-3-trifluoromethyl-benzyl)-3-hydroxy-benzenesulfonamide] | 20 nM | 90% | – | –
9 | O=S(=O)(c1ccc(O)cc1)N(Cc1ccc(F)c(C(F)(F)F)c1)c1sc2ccccc2c1Cl [Compound 289, N-(3-Chloro-benzo[b]thiophen-2-yl)-N-(4-fluoro-3-trifluoromethyl-benzyl)-4-hydroxy-benzenesulfonamide] | 27 nM | 92% | – | –
10 | O=C(O)c1cccc(S(=O)(=O)N(Cc2ccc(F)c(C(F)(F)F)c2)c2sc3ccccc3c2Br)c1 [Compound 293, N-(3-Bromo-benzo[b]thiophen-2-yl)-N-(4-fluoro-3-trifluoromethyl-benzyl)-3-carboxy-benzenesulfonamide] | 7.8 nM | 101% | 101% | –
11 | O=C(O)c1ccc(S(=O)(=O)N(Cc2ccc(F)c(C(F)(F)F)c2)c2sc3ccccc3c2Cl)cc1 [Compound 294, N-(3-Chloro-benzo[b]thiophen-2-yl)-N-(4-fluoro-3-trifluoromethyl-benzyl)-4-carboxy-benzenesulfonamide] | 1.8 nM | 99% | – | –
12 | O=C(O)c1cccc(S(=O)(=O)N(Cc2ccc(F)c(C(F)(F)F)c2)c2cc3ccccc3s2)c1 [Compound 295, N-(Benzo[b]thiophen-2-yl)-N-(4-fluoro-3-trifluoromethyl-benzyl)-3-carboxy-benzenesulfonamide] | 33 nM | 81% | – | –
13 | O=C(O)c1ccc(S(=O)(=O)N(Cc2ccc(F)c(C(F)(F)F)c2)c2cc3ccccc3s2)cc1 [Compound 296, N-(Benzo[b]thiophen-2-yl)-N-(4-fluoro-3-trifluoromethyl-benzyl)-4-carboxy-benzenesulfonamide] | 2 nM | 96% | – | –
14 | O=C(O)c1ccccc1S(=O)(=O)N(Cc1ccc(F)c(C(F)(F)F)c1)c1sc2ccccc2c1Cl [Compound 297, N-(3-Chloro-benzo[b]thiophen-2-yl)-N-(4-fluoro-3-trifluoromethyl-benzyl)-2-carboxy-benzenesulfonamide] | – | 21% | – | –
15 | O=C(O)c1ccccc1S(=O)(=O)N(Cc1ccc(F)c(C(F)(F)F)c1)c1sc2ccccc2c1Br [Compound 298, N-(3-Bromo-benzo[b]thiophen-2-yl)-N-(4-fluoro-3-trifluoromethyl-benzyl)-2-carboxy-benzenesulfonamide] | – | 18% | – | –
16 | O=Cc1c(N(Cc2ccc(F)c(C(F)(F)F)c2)S(=O)(=O)c2ccc(C(=O)O)cc2)sc2ccccc12 [Compound 299, N-(3-Formyl-benzo[b]thiophen-2-yl)-N-(4-fluoro-3-trifluoromethyl-benzyl)-4-carboxy-benzenesulfonamide] | 3 nM | 90% | – | –
17 | NS(=O)(=O)N(Cc1ccc(F)c(C(F)(F)F)c1)c1cc2ccccc2s1 [Compound 300, N-(Benzo[b]thiophen-2-yl)-N-(4-fluoro-3-trifluoromethyl-benzyl)-sulfamide] | – | 21% | – | –

Other lines, results leading:

Row | IC50 | inhibition at 0.2 µM [1] | inhibition at 0.5 µM [2] | % Inh @ 0.2 (μM) [1] | SMILES
18 | – | 87% | – | – | CCCCN(c1sc2ccccc2c1C(C)O)S(=O)(=O)CC (stereo not shown) [Compound 280, N-(Butyl)-N-[3-(1-hydroxy-ethyl)-benzo[b]thiophen-2-yl]-ethanesulfonamide]
19 | – | 62% | – | – | CCS(=O)(=O)N(CC1CC1)c1sc2ccccc2c1C(C)O (stereo not shown) [Compound 281, N-(Cyclopropylmethyl)-N-(3-(1-hydroxyethyl)benzo[b]thiophen-2-yl)-ethanesulfonamide]
20 | 70 nM | 86% | – | – | CCS(=O)(=O)N(CCC(F)(F)F)c1sc2ccccc2c1C(C)O (stereo not shown) [Compound 282, N-(3-(1-Hydroxyethyl)benzo[b]thiophen-2-yl)-N-(3,3,3-trifluoro-propyl)-ethanesulfonamide]
21 | 5.3 nM | 103% | – | – | O=S(=O)(c1ccc(O)cc1)N(Cc1ccc(F)c(C(F)(F)F)c1)c1sc2ccccc2c1Br [Compound 290, N-(3-Bromo-benzo[b]thiophen-2-yl)-N-(4-fluoro-3-trifluoromethyl-benzyl)-4-hydroxy-benzenesulfonamide]
22 | 5.8 nM | 101% | – | – | O=S(=O)(c1cccc(O)c1)N(Cc1ccc(F)c(C(F)(F)F)c1)c1sc2ccccc2c1Br [Compound 291, N-(3-Bromo-benzo[b]thiophen-2-yl)-N-(4-fluoro-3-trifluoromethyl-benzyl)-3-hydroxy-benzenesulfonamide]
23 | – | – | – | 63% | NS(=O)(=O)N(Cc1ccc(F)c(C(F)(F)F)c1)c1sc2ccccc2c1Br [Compound 301, N-(3-Bromo-benzo[b]thiophen-2-yl)-N (4-fluoro-3-trifluoromethyl-benzyl)-sulfamide]
24 | – | 50% | – | – | NS(=O)(=O)N(Cc1ccc(F)c(C(F)(F)F)c1)c1sc2ccccc2c1Cl [Compound 302, N-(3-Chloro-benzo[b]thiophen-2-yl)-N-(4-fluoro-3-trifluoromethyl-benzyl)-sulfamide]
25 | – | 56% | – | – | NS(=O)(=O)N(CC1CC1)c1sc2ccccc2c1Br [Compound 303, N-(3-Bromo-benzo[b]thiophen-2-yl)-N-(cyclopropylmethyl)-sulfamide]
